# Laboratory results taken from patent US11512053B2, “Arginine methyltransferase inhibitors and uses thereof” (priority 2013, dated 2022).
# Where a name gives a salt, the structure may show the parent alone. Read-outs that look alike come from different tables or passages of the source.
# Key:
# [1] = molecular target: full-length human PRMT1 isoform 1 (GST-tagged) (Homo sapiens, UniProt Q99873); assay: PRMT1 Biochemical Assay (3H-SAM Flashplate, peptide substrate)
# Method in brief: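 GST-tagged full-length PRMT1 from baculovirus-infected cells, preincubated 30 min at room temperature with compound in 20 mM Bicine pH 7.6, TCEP, BSG, Tween 20. Reaction started with 3H-SAM plus biotinylated peptide, stopped with 300 uM unlabelled SAM. Streptavidin Flashplate capture and scintillation counting; % inhibition curve-fitted for IC50.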
# [2] = molecular target: full-length human PRMT8 isoform 1 (Homo sapiens, UniProt Q9NR22); assay: PRMT8 Biochemical Assay (3H-SAM Flashplate, peptide substrate); settings: read-out: Biochemical IC50 PRMT8
# Method in brief: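 Full-length human PRMT8 (1.5 nM, E. coli-expressed, GST removed) preincubated 30 min at room temperature with compound, then reacted with 50 nM 3H-SAM plus 550 nM cold SAM and 150 nM biotinylated H4 31-45 peptide in 20 mM Bicine pH 7.6, 1 mM TCEP, 0.005% BSG, 0.002% Tween 20, 2% DMSO. Quenched with 400 uM cold SAM; labelled peptide captured on streptavidin Flashplate, % inhibition versus 1 mM SAH and DMSO controls fitted to 4- or 3-parameter curve.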
# [3] = single experiment or average of multiple experiments
# Sequence of full-length human PRMT1 isoform 1 (GST-tagged) (Q99873 with tags, fused parts or gaps): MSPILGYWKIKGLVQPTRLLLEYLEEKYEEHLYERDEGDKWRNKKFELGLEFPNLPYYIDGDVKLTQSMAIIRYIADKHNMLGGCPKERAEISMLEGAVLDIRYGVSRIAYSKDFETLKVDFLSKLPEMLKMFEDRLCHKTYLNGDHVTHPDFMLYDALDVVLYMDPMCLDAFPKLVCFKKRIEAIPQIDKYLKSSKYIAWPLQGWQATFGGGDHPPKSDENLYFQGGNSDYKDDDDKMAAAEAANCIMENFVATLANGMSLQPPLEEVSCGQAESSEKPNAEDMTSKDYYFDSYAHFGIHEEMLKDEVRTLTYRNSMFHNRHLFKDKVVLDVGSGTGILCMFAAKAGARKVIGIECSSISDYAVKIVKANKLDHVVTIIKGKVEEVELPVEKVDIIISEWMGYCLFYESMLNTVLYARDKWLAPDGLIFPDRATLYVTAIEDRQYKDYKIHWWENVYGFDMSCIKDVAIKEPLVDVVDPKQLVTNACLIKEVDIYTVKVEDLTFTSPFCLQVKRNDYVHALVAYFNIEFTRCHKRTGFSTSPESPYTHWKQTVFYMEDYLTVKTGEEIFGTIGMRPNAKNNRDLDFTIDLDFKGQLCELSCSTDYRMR
# Sequence of full-length human PRMT8 isoform 1 (Q9NR22 whole entry, canonical isoform): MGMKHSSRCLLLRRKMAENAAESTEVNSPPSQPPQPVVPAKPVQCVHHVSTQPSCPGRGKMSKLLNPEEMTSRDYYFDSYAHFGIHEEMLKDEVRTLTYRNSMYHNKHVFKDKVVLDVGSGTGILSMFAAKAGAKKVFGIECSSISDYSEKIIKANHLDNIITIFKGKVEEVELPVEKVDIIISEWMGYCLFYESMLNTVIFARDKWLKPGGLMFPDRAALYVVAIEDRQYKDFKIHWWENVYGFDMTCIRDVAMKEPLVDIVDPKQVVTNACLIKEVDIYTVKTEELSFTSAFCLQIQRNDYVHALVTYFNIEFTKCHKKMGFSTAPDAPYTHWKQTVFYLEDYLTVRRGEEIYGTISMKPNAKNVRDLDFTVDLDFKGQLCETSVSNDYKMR
Compound,IC50 [1] [nM],"IC50 [1, 3] [nM]",IC50 [2] [nM],"IC50 [2, 3] [nM]"
CCOC[C@H]1CC(c2n[nH]cc2CN(C)CCNC)C[C@H](COCC)C1 (some centres unmarked) [Compound 188],101 to 1000,275,1010 to 3000,1540
CNCCN(C)Cc1c[nH]nc1C1CCC(=O)N(CCCOC)C1 (centres unmarked) [Compound 190],101 to 1000,124,101 to 1000,352
CNCCN(C)Cc1c[nH]nc1C1CCC(=O)N(Cc2ccc(C(F)(F)F)cc2)C1 (centres unmarked) [Compound 191],< 100,50.4,101 to 1000,152
CNCCN(C)Cc1c[nH]nc1[C@H]1CC[C@H](N(CC(C)C)C(=O)CC2CCOCC2)CC1 [Compound 193],< 100,28.4,< 100,68.8
CNCCN(C)Cc1c[nH]nc1C1CCC(=O)CC1 [Compound 194],< 100,14.5,< 100,35.3
CCN(C(=O)CC1CCOCC1)[C@H]1CC[C@H](c2n[nH]cc2CN(C)CCNC)CC1 [Compound 195],< 100,14.4,< 100,35.6
CNCCN(C)Cc1c[nH]nc1C1CCC2(CCCC2)OC1 (centres unmarked) [Compound 199],< 100,16.8,< 100,38.3
"CNCCN(C)Cc1n[nH]cc1[C@H]1CC[C@@]2(CC1)CC(C)(C)CO2 [Compound 200, Methyl[2-(methylamino)ethyl]([4-[(5S,8S)-3,3-dimethyl-1-oxaspiro[4.5]decan-8-yl]-1H-pyrazol-3-yl]methyl)amine trifluoroacetic acid salt]",< 100,,< 100,
CCOCC1CC(c2n[nH]cc2CN(C)CCNC)CCC1(C)C (centres unmarked) [Compound 202],< 100,12.7,< 100,26.9
CNCCN(C)Cc1c[nH]nc1[C@H]1CC[C@@H](C(=O)NCCC(C)C)CC1 [Compound 204],< 100,18.4,< 100,51.6

# Now from value to molecule:
IC50 [1] [nM],"IC50 [1, 3] [nM]",IC50 [2] [nM],"IC50 [2, 3] [nM]",Compound
101 to 1000,108,101 to 1000,478,CCOC[C@@H]1C[C@H](COCC)C[C@H](c2n[nH]cc2CN(C)CCNC)C1 [Compound 189]
101 to 1000,216,101 to 1000,459,CNCCN(C)Cc1c[nH]nc1[C@H]1CC[C@H](N(CC2CCOCC2)C(=O)CC(C)C)CC1 [Compound 192]
101 to 1000,149,101 to 1000,415,CCN(C(=O)CC1CCOCC1)[C@H]1CC[C@@H](c2n[nH]cc2CN(C)CCNC)CC1 [Compound 196]
< 100,8.27,< 100,15.6,CNCCN(C)Cc1c[nH]nc1[C@H]1CC[C@]2(CCN(Cc3cc(F)cc(F)c3)C2=O)CC1 [Compound 197]
3010 to 10000,≥ 10000,3010 to 10000,≥ 10000,CNCCN(C)Cc1c[nH]nc1[C@H]1CC[C@]2(CCCO2)OC1 [Compound 198]
< 100,,< 100,,CNCCN(C)Cc1n[nH]cc1[C@H]1CC[C@]2(CC1)CC(C)(C)CO2 [Compound 201]
< 100,28.4,< 100,84.4,CNCCN(C)Cc1n[nH]cc1[C@H]1CC[C@H](C(=O)NCCC(C)C)CC1 [Compound 203]
< 100,12.8,< 100,15.4,"CNCCN(C)Cc1cn(C)nc1[C@H]1CC[C@@]2(CC1)CC(C)(C)CO2 [Compound 205, Methyl([1-methyl-3-[(5S,8S)-3,3-dimethyl-1-oxaspiro[4.5]decan-8-yl]-1H-pyrazol-4-yl]methyl)[2-(methylamino)ethyl]amine hydrochloride]"
